Source: article PMC7596181 (Frontiers in Immunology, 2020)

What was measured:
human TLR4 [1] = target: T1, human TLR4 (Homo sapiens, UniProt O00206+Q9Y6Y9); assay: Inhibition curves (IC50 format): antagonist diluted in a fixed concentration of reference agonist, human TLR4 HEK-Blue SEAP; format: cell-based; design: host or cells: HEK-Blue (HEK293-derived) reporter cells; conditions: for inhibition of 3D-6A-PHAD stimulation: fixed 3D-6A-PHAD 300 nM; for IC50: 95% CI given; for inhibition of PHAD stimulation: fixed PHAD 1 μM, 22 h
Procedure: (§1) SEAP assays were performed to evaluate the extent to which TLR4 signaling was activated in HEK-Blue reporter cells expressing mouse or human receptors (CD14, MD2 and TLR4). Reporter cells were harvested when 70–80% confluent and plated in 96-well, flat-bottom microtiter plates either 1 h, one day or two days (5 × 10^4, 4 × 10^4 or 2 × 10^4 cells/well, respectively) before addition of TLR4 agonists for 18–24 h. Culture supernatants were transferred to U-bottom microtiter plates, centrifuged and transferred again to microtiter plates to ensure reporter cells were not present. The culture supernatants were added to QUANTI-BLUE substrate following instructions provided by the manufacturer (InvivoGen cat. nos. rep-qbl or rep-qbs) and incubated at 37°C in a tissue culture incubator. At successive intervals beginning 10 min after mixing the supernatants and substrate, the plates were placed in an Emax plate reader (Molecular Devices LLC) and optical density was measured at visible light wavelength […] (OD650). The shortest incubations at which dose response curve fits produced maximal R^2 ‘goodness of fit’ values, as determined by GraphPad Prism software, were used for analysis.
Pharmacological profiles of the TLR4 reagents were generated by performing dose response curves in one of four formats. 1) Agonist potency and efficacy (EC50 and height of dose plateau, respectively) were measured by diluting TLR4 reagents successively in complete culture medium [DMEM or RPMI supplemented with fetal bovine serum (FBS) or RPMI supplemented with human serum, depending on cell-type]. Half-log step dilutions were performed in 96-well, U-bottom microtiter plates using a multichannel pipette to transfer and mix the suspensions, with fresh tips used for each dilution step. One-tenth (20 μl) volumes from wells of the dilution plate were then transferred to wells containing cells that had been plated in nine-tenth volumes (180 μl) of culture medium. 2) Mixed agonist–antagonist potency and efficacy were measured by mixing a TLR4 agonist with a candidate antagonist at a fixed ratio and then performing half-log step dilutions before treating HEK reporter cells. Analysis of values obtained from SEAP assays of culture supernatants was then performed as described for preparations containing agonist alone, above. 3) Competitive vs allosteric or non-competitive antagonist type was evaluated by diluting a reference agonist within a fixed concentration of a candidate inhibitor in half-log steps, treating HEK reporter cells, performing SEAP assays and then analyzing the data as described for agonist assays, above. Competitive antagonists are characterized by values that reach the same dose plateau as for a reference, full agonist, while shifting potency to higher EC50 values. […] 4) Inhibitory potency (IC50) was measured by diluting antagonists within a fixed concentration of a reference agonist, treating HEK reporter cells and performing SEAP assays as described.

human TLR4 [2] = target: T1, human TLR4; assay: SEAP assay, agonist dose response in human TLR4 HEK-Blue reporter cells; format: cell-based; design: host or cells: HEK-Blue (HEK293-derived) reporter cells; conditions: human TLR4 HEK-Blue reporter cells
Procedure: Human and mouse HEK-Blue reporter cells express human or mouse CD14, MD2, and TLR4 and secreted embryonic alkaline phosphatase (SEAP) under control of a promoter with binding sites for NFκB and AP-1 transcription factors (InvivoGen cat. nos. hkb-htlr4 and hkb-mtlr4). Cells were cultured as directed by the supplier, with the exception that Glutamax (ThermoFisher cat. no. 10569010) was used in place of L-glutamine, and TrypLE Express (ThermoFisher cat. no. 12605010) was used to release adherent cells for each passage. BALB/c mouse RAW264.7 and human THP-1 cells (ATCC® cat. nos. TIB-71 and TIB-202) were cultured in DMEM (4.5 g/L D-Glucose with 2 mM L-glutamine, 1 mM sodium pyruvate, 100 U/ml penicillin and 100 μg/ml streptomycin) supplemented with 10% heat-inactivated FBS. THP-1 cells were exposed to phorbol-12-myristate-13-acetate (PMA, InvivoGen cat no. tlrl-pma), 5 ng/ml, for 48 h prior to treatment with TLR4 agonists. Bone marrow-derived dendritic cells (BMDCs) were generated using C57BL/6 mouse femurs following the exact method published by Lutz et al. ([29]) except that 5 rather than 20 ng/ml recombinant GM-CSF was used to differentiate the DC. Human peripheral blood […] (PBMCs) were prepared from venous blood of healthy volunteers that had been collected using sodium citrate as anti-coagulant, 20 ml of which was mixed with 15 ml calcium- and magnesium-free Hank’s Balanced Saline Solution (HBSS) and then laid over 6 ml Histopaque®-1077 (1.077 g/ml, Sigma-Aldrich cat no. 10771) for density gradient centrifugation. The buffy coat layer was collected by pipette, washed once in HBSS, once in serum-free RPMI-1640, and then the PBMCs were resuspended in RPMI-1640 supplemented with 100 U/ml penicillin, 100 µg/ml streptomycin, 1 mM Na-Pyruvate, 2 mM L-glutamine, 50 μM βME and 10% heat-inactivated, male AB human serum for culture.
as §1
Pharmacological profiles of the TLR4 reagents were generated by performing dose response curves in one of four formats. 1) Agonist potency and efficacy (EC50 and height of dose plateau, respectively) were measured by diluting TLR4 reagents successively in complete culture medium [DMEM or RPMI supplemented with fetal bovine serum (FBS) or RPMI supplemented with human serum, depending on cell-type]. Half-log step dilutions were performed in 96-well, U-bottom microtiter plates using a multichannel pipette to transfer and mix the suspensions, with fresh tips used for each dilution step. One-tenth (20 μl) volumes from wells of the dilution plate were then transferred to wells containing cells that had been plated in nine-tenth volumes (180 μl) of culture medium. […]

T1 sequence (O00206 24-839): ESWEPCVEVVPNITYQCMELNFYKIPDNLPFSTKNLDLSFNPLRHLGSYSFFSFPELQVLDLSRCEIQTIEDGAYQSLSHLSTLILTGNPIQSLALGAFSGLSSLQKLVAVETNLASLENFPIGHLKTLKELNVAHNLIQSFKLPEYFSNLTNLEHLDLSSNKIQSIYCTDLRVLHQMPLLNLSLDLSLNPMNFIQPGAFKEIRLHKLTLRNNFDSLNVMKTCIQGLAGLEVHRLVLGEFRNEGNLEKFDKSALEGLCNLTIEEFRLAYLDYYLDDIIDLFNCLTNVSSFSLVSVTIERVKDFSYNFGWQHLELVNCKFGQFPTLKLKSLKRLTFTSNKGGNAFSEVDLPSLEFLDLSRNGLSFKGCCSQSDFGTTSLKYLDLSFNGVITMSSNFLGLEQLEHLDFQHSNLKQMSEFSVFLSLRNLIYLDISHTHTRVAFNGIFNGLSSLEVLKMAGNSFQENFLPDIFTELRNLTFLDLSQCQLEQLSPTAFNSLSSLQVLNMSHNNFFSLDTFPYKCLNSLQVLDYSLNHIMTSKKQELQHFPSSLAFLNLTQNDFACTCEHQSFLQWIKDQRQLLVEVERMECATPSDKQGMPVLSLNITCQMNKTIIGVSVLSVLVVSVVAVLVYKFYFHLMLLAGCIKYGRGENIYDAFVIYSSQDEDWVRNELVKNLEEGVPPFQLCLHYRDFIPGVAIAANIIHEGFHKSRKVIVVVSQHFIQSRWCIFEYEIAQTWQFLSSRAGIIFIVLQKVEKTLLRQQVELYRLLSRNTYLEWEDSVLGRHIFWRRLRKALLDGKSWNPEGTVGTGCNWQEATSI
T1 sequence (Q9Y6Y9 17-160 limits assumed): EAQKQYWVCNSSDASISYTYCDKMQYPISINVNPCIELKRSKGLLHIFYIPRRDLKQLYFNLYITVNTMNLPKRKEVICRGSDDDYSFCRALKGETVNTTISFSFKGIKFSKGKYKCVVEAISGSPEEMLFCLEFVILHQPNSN

Compound | inhibition of 3D-6A-PHAD stimulation (human TLR4 [1]) | IC50 (human TLR4 [1]; fixed PHAD 30 nM) [nM] | inhibition of PHAD stimulation (human TLR4 [1]) | agonist profile (human TLR4 [2]) | extent of inhibition at high dose (human TLR4 [1]; fixed PHAD 30 nM, peak dose 31.6 μM)
CCCCCCCCCCCC(=O)OC(CCCCCCCCCCC)CC(=O)NC1C(OCC2OC(O)C(NC(=O)CC(O)CCCCCCCCCCC)C(O)C2O)OC(CO)C(OP(=O)(O)O)C1O (centres unmarked) [ML3] | functioned as inhibitors | 1320 | showed inhibitory potential | largely inactive | –
CCCCCCCCCCCC(=O)OC(CCCCCCCCCCC)CC(=O)NC1C(OCC2OC(O)C(NC(=O)CC(O)CCCCCCCCCCC)C(O)C2O)OC(CO)C(OP(=O)(O)O)C1OC(=O)CC(O)CCCCCCCCCCC (centres unmarked) [ML4A] | functioned as inhibitors | 400 | showed inhibitory potential | all but inactive | approach a bottom plateau rather than achieving full inhibition
CCCCCCCCCCCCCCCC(=O)OC(CCCCCCCCCCC)CC(=O)NC1C(O)OC(COC2OC(CO)C(OP(=O)(O)O)C(O)C2NC(=O)CC(CCCCCCCCCCC)OC(=O)CCCCCCCCCCC)C(O)C1O (centres unmarked) [ML4B] | – | – | only ML3 and ML4A showed inhibitory potential | largely inactive | –
